Source: PubChem BioAssay AID248 (DTP/NCI, 2004)
Several values for one entry are separate records, joined by “and”; a condition that tells them apart may be missing. Identical values can stand only once. Inconclusive results and toxic doses are left out. No stated cut-off is given here; in the data, active means T/C of 150% or more; inactive means T/C below 125%.

Tested on: L1210 leukemia ip in BDF1 mice, survival T/C
Experiment: NCI In Vivo Anticancer Drug Screen. Data for tumor model L1210 Leukemia (intraperitoneal) in B6D2F1 (BDF1) mice
Details: endpoint: mean survival time, higher = longer survival
Procedure, shortened: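 Tumor was transplanted into mice, which were then dosed with test compound or vehicle alone. Survival was recorded for each group, and the treated figure was expressed relative to the control figure.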

[1] = dose: 100.0 mg/kg/injection, schedule: Q04DX003 (ip), vehicle: saline with Tween-80
[2] = dose: 200.0 mg/kg/injection, schedule: Q04DX003 (ip), vehicle: saline with Tween-80
[3] = dose: 400.0 mg/kg/injection, schedule: Q04DX003 (ip), vehicle: saline with Tween-80
[4] = dose: 100.0 mg/kg/injection, schedule: Q01DX009 (ip), vehicle: Klucel (hydroxypropylcellulose) (HPC)
[5] = dose: 100.0 mg/kg/injection, schedule: Q04DX003 (ip), vehicle: Klucel (hydroxypropylcellulose) (HPC)
[6] = dose: 200.0 mg/kg/injection, schedule: Q01DX009 (ip), vehicle: Klucel (hydroxypropylcellulose) (HPC)
[7] = dose: 200.0 mg/kg/injection, schedule: Q04DX003 (ip), vehicle: Klucel (hydroxypropylcellulose) (HPC)
[8] = dose: 400.0 mg/kg/injection, schedule: Q04DX003 (ip), vehicle: Klucel (hydroxypropylcellulose) (HPC)
[9] = dose: 50.0 mg/kg/injection, schedule: Q01DX001 (ip), vehicle: saline
[10] = dose: 100.0 mg/kg/injection, schedule: Q01DX001 (ip), vehicle: saline
[11] = dose: 200.0 mg/kg/injection, schedule: Q01DX001 (ip), vehicle: saline
[12] = dose: 400.0 mg/kg/injection, schedule: Q01DX001 (ip), vehicle: saline
[13] = dose: 100.0 mg/kg/injection, schedule: Q04DX002 (ip), vehicle: saline
[14] = dose: 100.0 mg/kg/injection, schedule: Q01DX009 (ip), vehicle: saline with Tween-80
[15] = dose: 200.0 mg/kg/injection, schedule: Q01DX009 (ip), vehicle: saline with Tween-80
[16] = dose: 400.0 mg/kg/injection, schedule: Q01DX009 (ip), vehicle: saline with Tween-80
[17] = dose: 50.0 mg/kg/injection, schedule: Q01DX009 (ip), vehicle: saline with Tween-80

Measured: T/C

c1ccc(CSc2nccc(NN=C3CCCCC3)n2)cc1
inactive: dose: 25.0 mg/kg/injection, schedule: Q01DX001 (ip), vehicle: DMSO 90 % of control | dose: 50.0 mg/kg/injection, schedule: Q01DX001 (ip), vehicle: DMSO 88 % of control | dose: 75.0 mg/kg/injection, schedule: Q01DX009 (ip), vehicle: DMSO 92 % of control | dose: 100.0 mg/kg/injection, schedule: Q01DX001 (ip), vehicle: DMSO 88 % of control | dose: 150.0 mg/kg/injection, schedule: Q01DX009 (ip), vehicle: DMSO 94 % of control | dose: 200.0 mg/kg/injection, schedule: Q01DX001 (ip), vehicle: DMSO 91 % of control | dose: 400.0 mg/kg/injection, schedule: Q01DX001 (ip), vehicle: DMSO 100 % of control

c1ccc(SCc2ncc3cnccn23)cc1
inactive: [1] 97 % of control | [2] 94 % of control | [3] 103 % of control

O=[N+]([O-])c1cnc2ccnn2c1
inactive: [4] 101 % of control | [5] 100 % of control | [6] 97 % of control | [7] 92 % of control | dose: 400.0 mg/kg/injection, schedule: Q01DX009 (ip), vehicle: Klucel (hydroxypropylcellulose) (HPC) 111 % of control | [8] 100 % of control

Cc1[nH]c2ccccc2c(=O)c1-c1ccccc1
inactive: [9] 98 % of control | [10] 98 % of control | [11] 102 % of control | [12] 96 % of control

CN1CCN(Cc2c(O)ccc3c2OC(C)(C)C2=C3CCCC2)CC1
inactive: [10] 89 % of control | [11] 98 % of control

CCC1CN1C(=O)c1ccc(OP(=O)(N2CC2CC)N2CC2CC)cc1 (configuration not stated)
inactive: [9] 102 % of control | [10] 102 % of control | [11] 105 % of control | [12] 102 % of control

CN(CC(C)(C)C=O)CC(C)(C)C=O
inactive: [13] 112 % of control | dose: 200.0 mg/kg/injection, schedule: Q04DX002 (ip), vehicle: saline 101 % of control | dose: 400.0 mg/kg/injection, schedule: Q04DX002 (ip), vehicle: saline 108 % of control

O=C1OC(c2ccccc2)(c2ccccc2)c2cccc3cccc1c23
inactive: [14] 101 % of control | [15] 95 % of control | [16] 91 % of control

Cc1c(Cl)cccc1N1C(=O)CC(Sc2ccccc2N)C1=O (configuration not stated)
inactive: [4] 95 % of control | [14] 106 % of control | [5] 92 % of control | [1] 94 % of control | [6] 92 % of control | [15] 107 % of control | [2] 88 % of control | [16] 109 % of control | [8] 89 % of control | [3] 93 % of control

CCOC(=O)C[n+]1ccccc1
inactive: [17] 98 % of control | dose: 50.0 mg/kg/injection, schedule: Q01DX009 (ip), vehicle: saline 96 % of control | [14] 93 % of control | dose: 100.0 mg/kg/injection, schedule: Q01DX009 (ip), vehicle: saline 102 % of control | [15] 91 % of control

CC(=O)OCC1OC(OC(C)=O)C(NS(=O)(=O)c2ccc(C)cc2)C(OC(C)=O)C1OC(C)=O (configuration not stated)
inactive: [10] 102 % of control | [11] 104 % of control | [12] 102 % of control

O=[N+]([O-])c1cccc(S(=O)(=O)NNc2ccc(Br)cc2)c1
inactive: [5] 96 % of control | [7] 93 % of control | [8] 89 % of control

O=C(O)/C=C/C(=O)Nc1ccc(Cl)cc1C(=O)c1ccccc1
inactive: [4] 101 % of control | [6] 98 % of control

O=C(CSCc1ccc([N+](=O)[O-])cc1)c1ccc(Br)cc1
inactive: [10] 92 % of control | [11] 95 % of control | [12] 92 % of control

CN(C)CCCNCC(Cc1ccccc1)c1ccccc1 (configuration not stated)
inactive: [13] 93 % of control

N#CC1(Nc2ccc(-c3ccc(NC4(C#N)CCCC4)cc3)cc2)CCCC1
inactive: dose: 50.0 mg/kg/injection, schedule: Q01DX001 (ip), vehicle: carboxymethylcellulose (CMC) 90 % of control | dose: 100.0 mg/kg/injection, schedule: Q01DX001 (ip), vehicle: carboxymethylcellulose (CMC) 95 % of control | dose: 400.0 mg/kg/injection, schedule: Q01DX001 (ip), vehicle: carboxymethylcellulose (CMC) 88 % of control

O=NN(CCCl)C(=O)NC1CCC(CC(=O)O)CC1 (configuration not stated)
111 % of control and 202 % of control: dose: 60.0 mg/kg/injection, schedule: Q01DX001 (ip), vehicle: Klucel (hydroxypropylcellulose) (HPC)
active: dose: 5.3 mg/kg/injection, schedule: Q01DX001 (ip), vehicle: Klucel (hydroxypropylcellulose) (HPC) 171 % of control | dose: 12.0 mg/kg/injection, schedule: Q01DX001 (ip), vehicle: Klucel (hydroxypropylcellulose) (HPC) 235 % of control and 536 % of control | dose: 15.0 mg/kg/injection, schedule: Q01DX001 (ip), vehicle: carboxymethylcellulose (CMC) 151 % of control and 178 % of control | dose: 18.0 mg/kg/injection, schedule: Q01DX001 (ip), vehicle: Klucel (hydroxypropylcellulose) (HPC) 352 % of control and 377 % of control | dose: 18.0 mg/kg/injection, schedule: Q01DX001 (ip), vehicle: carboxymethylcellulose (CMC) 403 % of control | dose: 23.0 mg/kg/injection, schedule: Q01DX001 (ip), vehicle: carboxymethylcellulose (CMC) 336 % of control and 351 % of control | dose: 26.0 mg/kg/injection, schedule: Q01DX001 (ip), vehicle: Klucel (hydroxypropylcellulose) (HPC) 352 % of control and 439 % of control | dose: 26.0 mg/kg/injection, schedule: Q01DX001 (ip), vehicle: carboxymethylcellulose (CMC) 454 % of control | dose: 34.0 mg/kg/injection, schedule: Q01DX001 (ip), vehicle: carboxymethylcellulose (CMC) 445 % of control and 454 % of control | dose: 40.0 mg/kg/injection, schedule: Q01DX001 (ip), vehicle: Klucel (hydroxypropylcellulose) (HPC) 319 % of control and 381 % of control | dose: 40.0 mg/kg/injection, schedule: Q01DX001 (ip), vehicle: carboxymethylcellulose (CMC) 418 % of control | dose: 51.0 mg/kg/injection, schedule: Q01DX001 (ip), vehicle: carboxymethylcellulose (CMC) 413 % of control and 476 % of control | dose: 77.0 mg/kg/injection, schedule: Q01DX001 (ip), vehicle: carboxymethylcellulose (CMC) 175 % of control and 258 % of control
inactive: dose: 3.5 mg/kg/injection, schedule: Q01DX001 (ip), vehicle: Klucel (hydroxypropylcellulose) (HPC) 114 % of control | dose: 60.0 mg/kg/injection, schedule: Q01DX001 (ip), vehicle: carboxymethylcellulose (CMC) 102 % of control

O=C1Nc2cc(C(F)(F)F)ccc2/C1=C/c1ccc(Cl)cc1
inactive: dose: 75.0 mg/kg/injection, schedule: Q01DX001 (ip), vehicle: saline 92 % of control | dose: 75.0 mg/kg/injection, schedule: Q04DX003 (ip), vehicle: saline 96 % of control | dose: 150.0 mg/kg/injection, schedule: Q01DX001 (ip), vehicle: saline 97 % of control | dose: 150.0 mg/kg/injection, schedule: Q04DX003 (ip), vehicle: saline 100 % of control | dose: 300.0 mg/kg/injection, schedule: Q01DX001 (ip), vehicle: saline 97 % of control | dose: 300.0 mg/kg/injection, schedule: Q04DX003 (ip), vehicle: saline 94 % of control

CC(c1ccccc1)n1cnc2c(N(CCO)CCO)ncnc21 (configuration not stated)
inactive: [10] 117 % of control | [11] 104 % of control | [12] 101 % of control

O=C(NCCO)c1ccc(Br)cc1
inactive: [17] 97 % of control | [14] 97 % of control | [15] 90 % of control

CCCCN(C)N=Nc1ccc(OCC(=O)NN)cc1
inactive: dose: 10.0 mg/kg/injection, schedule: Q01DX Z (ip), vehicle: carboxymethylcellulose (CMC) 93 % of control | dose: 15.0 mg/kg/injection, schedule: Q01DX Z (ip), vehicle: carboxymethylcellulose (CMC) 96 % of control | dose: 20.0 mg/kg/injection, schedule: Q01DX Z (ip), vehicle: carboxymethylcellulose (CMC) 91 % of control | dose: 30.0 mg/kg/injection, schedule: Q01DX Z (ip), vehicle: carboxymethylcellulose (CMC) 114 % of control | dose: 60.0 mg/kg/injection, schedule: Q01DX Z (ip), vehicle: carboxymethylcellulose (CMC) 95 % of control

O=C(C=C(C(F)(F)F)C(F)(F)F)c1ccco1
inactive: dose: 12.5 mg/kg/injection, schedule: Q01DX009 (ip), vehicle: saline with Tween-80 100 % of control | dose: 25.0 mg/kg/injection, schedule: Q01DX009 (ip), vehicle: saline with Tween-80 104 % of control
